{
  "source": "ChEMBL document CHEMBL1133164",
  "about": "“N-[[(5-methyl-3-phenylisoxazol-4-yl)-phenyl]sulfonyl]propanamide, sodium salt, parecoxib sodium: A potent and selective inhibitor of COX-2 for parenteral administration” (J Med Chem, 2000)",
  "key": {"[1]": {"organism": "Rattus norvegicus", "experiment": "Compound was tested for the antiinflammatory activity in carrageenan air pouch model of inflammation", "assay_type": "functional"}, "[2]": {"target": "Prostaglandin G/H synthase 1 (Homo sapiens, UniProt P23219)", "sequence (P23219 whole entry)": "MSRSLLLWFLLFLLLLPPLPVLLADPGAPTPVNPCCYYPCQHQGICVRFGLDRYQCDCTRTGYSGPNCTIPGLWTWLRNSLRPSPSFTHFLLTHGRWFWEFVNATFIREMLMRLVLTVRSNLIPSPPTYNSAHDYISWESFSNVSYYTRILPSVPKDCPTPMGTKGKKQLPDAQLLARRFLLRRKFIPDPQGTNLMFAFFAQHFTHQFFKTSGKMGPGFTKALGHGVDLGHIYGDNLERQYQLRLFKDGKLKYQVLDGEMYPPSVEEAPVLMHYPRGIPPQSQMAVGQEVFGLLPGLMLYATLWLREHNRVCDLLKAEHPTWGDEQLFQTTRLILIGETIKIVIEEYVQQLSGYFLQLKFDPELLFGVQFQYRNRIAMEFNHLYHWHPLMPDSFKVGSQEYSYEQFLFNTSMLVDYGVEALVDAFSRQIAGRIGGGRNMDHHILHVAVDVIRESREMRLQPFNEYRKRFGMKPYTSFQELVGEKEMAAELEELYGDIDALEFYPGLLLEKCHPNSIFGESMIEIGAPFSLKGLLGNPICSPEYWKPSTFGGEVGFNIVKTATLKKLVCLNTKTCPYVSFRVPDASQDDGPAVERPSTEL", "experiment": "Compound was tested for its inhibitory activity against recombinant human Prostaglandin G/H synthase 1"}, "[3]": {"target": "T1, Prostaglandin G/H synthase 2 (Homo sapiens, UniProt P35354)", "T1 sequence (P35354 whole entry)": "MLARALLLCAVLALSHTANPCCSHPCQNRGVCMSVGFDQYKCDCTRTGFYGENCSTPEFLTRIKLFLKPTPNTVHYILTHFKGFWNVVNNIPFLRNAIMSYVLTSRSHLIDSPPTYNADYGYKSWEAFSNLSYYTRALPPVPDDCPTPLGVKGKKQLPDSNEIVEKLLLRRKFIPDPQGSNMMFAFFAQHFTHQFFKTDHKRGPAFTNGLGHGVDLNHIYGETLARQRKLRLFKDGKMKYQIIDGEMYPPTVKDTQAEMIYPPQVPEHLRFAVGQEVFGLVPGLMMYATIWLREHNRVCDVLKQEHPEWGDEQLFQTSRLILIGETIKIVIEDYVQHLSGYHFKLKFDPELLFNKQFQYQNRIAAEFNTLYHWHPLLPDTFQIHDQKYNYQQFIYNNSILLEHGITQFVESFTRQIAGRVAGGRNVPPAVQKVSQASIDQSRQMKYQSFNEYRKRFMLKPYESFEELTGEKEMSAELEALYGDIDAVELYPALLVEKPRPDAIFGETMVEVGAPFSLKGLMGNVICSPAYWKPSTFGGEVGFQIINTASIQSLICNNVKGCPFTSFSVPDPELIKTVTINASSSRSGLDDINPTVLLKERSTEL", "description": "Compound was tested for its inhibitory activity against recombinant human Prostaglandin G/H synthase 2"}, "[4]": {"experiment": "In vivo mean elimination half life in the male rat by intravenous administration of the compound", "assay_type": "ADME, organism-based"}, "[5]": {"experiment": "In vivo mean elimination half life in the female dogs by intravenous administration of the compound", "assay_type": "ADME, organism-based, Canis lupus familiaris", "conditions": "dog"}, "[6]": {"experiment": "In vivo mean elimination half life in the cynomolgus monkeys by intravenous administration of the compound", "assay_type": "ADME, organism-based, Macaca fascicularis", "conditions": "cynomolgus monkey"}, "[7]": {"system": "Rattus norvegicus", "experiment": "Compound was tested for complete blockade of carrageenan induced hyperalgesia within 1 hr after iv administration", "assay_type": "functional"}, "[8]": {"organism": "Rattus norvegicus", "experiment": "Compound was tested for the chronic antiinflammatory activity in rat adjuvant arthritis model", "assay_type": "functional"}, "[9]": {"system": "Rattus norvegicus", "experiment": "Compound was tested for the percentage inhibition at 0.3 mg/kg in carrageenan air pouch assay.", "assay_type": "functional"}, "[10]": {"organism": "Rattus norvegicus", "experiment": "Compound was tested for the antiinflammatory activity in rat adjuvant arthritis model", "assay_type": "functional"}},
  "data": [
    {"smiles": "CC(=O)[N-]S(=O)(=O)c1ccc(-c2c(-c3ccccc3)noc2C)cc1.[Na+]", "values": [
      {"measurement": "ED50", "setting": "[1]", "result": 0.5, "unit": "mg/kg"},
      {"measurement": "IC50", "setting": "[2]", "result": 100, "unit": "µM"},
      {"measurement": "IC50", "setting": "[3]", "result": 20, "unit": "µM"}
    ]},
    {"smiles": "CCC(=O)[N-]S(=O)(=O)c1ccc(-c2c(-c3ccccc3)noc2C)cc1.[Na+]", "note": "[PARECOXIB SODIUM]", "values": [
      {"measurement": "half-life", "setting": "[4]", "result": 8.1, "unit": "min"},
      {"measurement": "half-life", "setting": "[5]", "result": 33.2, "unit": "min"},
      {"measurement": "half-life", "setting": "[6]", "result": 72.6, "unit": "min"},
      {"measurement": "ED50", "setting": "[7]", "result": 5, "unit": "mg/kg"},
      {"measurement": "ED50", "setting": "[8]", "result": 0.08, "unit": "mg/kg"},
      {"measurement": "inhibition in vivo at 0.3 mg/kg", "setting": "[9]", "result": 98, "unit": "%"}
    ]},
    {"smiles": "Cc1onc(-c2ccccc2)c1-c1ccc(S(N)(=O)=O)cc1", "note": "[VALDECOXIB]", "values": [
      {"measurement": "ED50", "setting": "[10]", "result": 0.08, "unit": "mg/kg"}
    ]}
  ]
}
